We go through four molecules from patent US10633364B2, “Crystals of quinazoline derivative and preparation method therefor” (Xuanzhu Pharma Co., Ltd., priority 2015, dated 2020).

≈ marks a conversion by molar mass, not a printed value. Like-named read-outs stand apart in the source and are kept apart here.

As a reminder, the AUC(0-inf) is the area under the concentration-time curve extrapolated to infinity. Lower therefore signals less exposure. The Cmax is the highest concentration seen after dosing. As usually defined, the Tmax is the time at which the peak concentration occurs. The solubility is how much of the substance goes into solution per volume. A low value points to little dissolved substance.

Data set [1] can be described thus: Pharmacokinetics of different forms in beagle dogs. The class given is in vivo. The settings on record: capsule, 3 mg/kg. The method, then:
Animal subject: beagle dogs, male, weighed 8˜14 kg, 3 dogs/crystal form. Beagle dogs were purchased from Beijing Marshall Biotechnology Co. Ltd.
Administration: three test samples were prepared into capsules, at an administration dose of 3 mg/kg according to body weight of dog.
About 37.3 mg of an amorphous compound was weighed, and packaged into hollow capsules (three capsules in total, one capsule per dog).
Blood was collected 10 min, 30 min, 1 h, 2 h, 4 h, 6 h, 8 h, and 24 h after administration. Before blood collection, the animals were fixed, and whole blood (about 400 μL) was collected from vein of forelimb at each time point, and added to K2EDTA-containing anticoagulation tubes. The whole blood sample was centrifuged for 6 min at 4° C., 8000 rpm in a high speed centrifuge, and plasma was separated. Plasma needed to be prepared within 30 min after blood collection, and plasma was stored at −80° C. in a refrigerator.
The plasma samples were analyzed by protein precipitation: to plasma (50 μL), an internal standard Afatinib dimaleate (200 μL, 50 ng/mL acetonitrile solution) was added; the resultant mixture was vortexed at 1500 rpm for 3 min, and centrifuged at 12000 rpm for 5 min; to the supernatant (100 μL), water (100 μL) was added; the resultant mixture was mixed homogeneously under vortexing and analyzed by LC-MS/MS for blood concentration.
PK parameters were calculated by using Pharsight Phoenix 6.2 software.

A short description of data set [2]: Stability of Crystal form I under accelerated condition and long-term condition. The class given is physicochemical. As to conditions: 30° C. 1 month.
Data set [3] can be described thus: Soluble property test in water. The class given is physicochemical. As for the experimental part: (1) Soluble property test: to a test sample, adding a corresponding solvent dropwise in a small amount for several times, shaking in a 25° C. thermostat water bath until the sample was completely dissolved, and calculating the dissolved concentration, i.e., soluble property.

The nature of data set [4]: Stability of Crystal form I under influencing factor condition (high temperature of 60° C.). The class given is physicochemical. As for the experimental part: A test sample was kept under influencing factor condition (a high temperature of 60° C.) for 30 d. Samples were separately taken at specified time points, and compared with the sample at Day 0. XRPD, relevant substances, contents, character, acidity, moisture content, and the like were determined. During the study, samples were packaged with plastic bags and sealed with aluminum foil outside.
(§1) In accordance with High Performance Liquid Chromatography in Appendix V D in Pharmacopoeia of the People's Republic of China (2010), samples at Day 0 were used as control samples, and samples were determined by external standard method.
(§2) In accordance with High Performance Liquid Chromatography in Appendix V D in Pharmacopoeia of the People's Republic of China (2010), samples were determined by area normalization method.
(§3) The moisture content was determined in accordance with First Method for Determining Moisture Content B (Coulometric Titration) in Appendix VIII M in Pharmacopoeia of the People's Republic of China (2010).

Data set [5] in a line: Stability of Crystal form I under accelerated condition and long-term condition. The class given is physicochemical. As for the experimental part: Test samples were kept under accelerated condition (40° C.+RH 75%) for 6 months. Samples were separately taken at specified time points. XRPD, character, relevant substances, content, acidity, moisture content and the like were studied.
Test samples were kept under long-term condition (25° C.) for 6 months. Samples were separately taken at specified time points. Important items of stability (relevant substances) were studied.
At the last time point of the accelerated condition and long-term condition, XRPD, character, relevant substances, content, pH, moisture content and the like were studied.
as §1, §2, §3

The nature of data set [6]: Solubility test (saturated solubility) in water. The class given is physicochemical. The source says: (2) Solubility test: to a suitable volume of water, adding a test sample until oversaturation occurred in the solution of the sample, vortexing, centrifuging, filtrating the supernatant and then diluting it to a suitable concentration, subjecting the sample to a liquid chromatographic instrument, and determining the saturated concentration of the sample (i.e., saturated solubility) by external standard method.

A short description of data set [7]: Stability of Crystal form II under influencing factor condition. The class given is physicochemical. As for the experimental part:
Test samples in culture dishes were left uncovered. The test samples, which were kept under influencing factor conditions (a high temperature of 60° C., 25° C.-high moisture RH 75%, and 25° C.-high moisture RH 92.5%, under the condition of light) for 5 days and 10 days, were studied for stability; and the test samples which were kept at 40° C. for 5 days, 10 days and 30 days, and the test samples which were kept at 25° C. for 30 days and 90 days, were studied for stability. Samples were separately taken at specified time points, and the items (moisture content (Coulomb), relevant substances, XRPD) were studied. In accordance with High Performance Liquid Chromatography in Appendix V D in Pharmacopoeia of the People's Republic of China (2010), samples were determined by area normalization method. The moisture content was determined in accordance with First Method for Determining Moisture Content B (Coulometric Titration) in Appendix VIII M in Pharmacopoeia of the People's Republic of China (2010).

In data set [8] the test system is erlotinib-resistant H1975 cell line. As to conditions: cited from earlier work.
The target in data set [9] is HER2 (Homo sapiens, UniProt P04626). The settings on record: disclosed in WO2012027960A1; cited from earlier work.
HER2, sequence (P04626 23-1255): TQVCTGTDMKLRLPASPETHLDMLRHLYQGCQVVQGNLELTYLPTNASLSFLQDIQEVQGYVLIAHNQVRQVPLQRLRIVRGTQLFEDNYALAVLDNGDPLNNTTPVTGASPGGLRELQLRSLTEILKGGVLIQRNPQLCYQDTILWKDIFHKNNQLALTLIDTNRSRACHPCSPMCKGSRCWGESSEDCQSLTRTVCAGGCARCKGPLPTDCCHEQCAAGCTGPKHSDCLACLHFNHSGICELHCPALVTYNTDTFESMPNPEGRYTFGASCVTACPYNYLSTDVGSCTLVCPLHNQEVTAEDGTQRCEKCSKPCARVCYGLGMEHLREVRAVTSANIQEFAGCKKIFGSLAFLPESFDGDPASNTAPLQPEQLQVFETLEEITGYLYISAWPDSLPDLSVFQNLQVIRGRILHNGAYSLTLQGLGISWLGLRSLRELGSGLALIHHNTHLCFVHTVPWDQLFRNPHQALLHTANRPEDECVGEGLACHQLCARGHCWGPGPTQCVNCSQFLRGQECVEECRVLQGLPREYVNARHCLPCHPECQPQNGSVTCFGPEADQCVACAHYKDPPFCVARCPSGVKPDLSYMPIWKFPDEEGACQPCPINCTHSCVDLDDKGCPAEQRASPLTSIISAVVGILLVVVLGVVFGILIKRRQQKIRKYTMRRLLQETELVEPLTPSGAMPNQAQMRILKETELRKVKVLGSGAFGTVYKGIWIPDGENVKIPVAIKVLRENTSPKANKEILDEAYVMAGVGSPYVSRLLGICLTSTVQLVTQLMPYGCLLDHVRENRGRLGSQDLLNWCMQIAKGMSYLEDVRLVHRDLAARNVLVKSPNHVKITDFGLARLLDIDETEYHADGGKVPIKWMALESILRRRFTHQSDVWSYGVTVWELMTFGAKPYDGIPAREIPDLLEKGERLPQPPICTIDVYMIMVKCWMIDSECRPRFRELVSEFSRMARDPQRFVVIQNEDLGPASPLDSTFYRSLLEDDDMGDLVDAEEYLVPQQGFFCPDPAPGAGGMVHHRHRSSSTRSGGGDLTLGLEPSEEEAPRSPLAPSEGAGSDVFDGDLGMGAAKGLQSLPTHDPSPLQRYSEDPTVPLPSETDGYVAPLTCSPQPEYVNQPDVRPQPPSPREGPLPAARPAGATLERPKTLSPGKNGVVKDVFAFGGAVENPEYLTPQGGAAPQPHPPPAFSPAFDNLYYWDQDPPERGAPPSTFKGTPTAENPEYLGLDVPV
Data set [10] has as its target HER4 (Homo sapiens, UniProt Q15303). The settings on record: disclosed in WO2012027960A1; cited from earlier work.
Data set [11] has as its target EGFR (Homo sapiens, UniProt P00533). As to conditions: disclosed in WO2012027960A1; cited from earlier work.
Where [12] appears, read: RH75% 5 days, 25° C., uncovered.
[13] abbreviates: RH75% 10 days, 25° C., uncovered.
[14] abbreviates: RH92.5% 5 days, 25° C., uncovered.
Where [15] appears, read: RH92.5% 10 days, 25° C., uncovered.

HER4, sequence (Q15303 26-1308): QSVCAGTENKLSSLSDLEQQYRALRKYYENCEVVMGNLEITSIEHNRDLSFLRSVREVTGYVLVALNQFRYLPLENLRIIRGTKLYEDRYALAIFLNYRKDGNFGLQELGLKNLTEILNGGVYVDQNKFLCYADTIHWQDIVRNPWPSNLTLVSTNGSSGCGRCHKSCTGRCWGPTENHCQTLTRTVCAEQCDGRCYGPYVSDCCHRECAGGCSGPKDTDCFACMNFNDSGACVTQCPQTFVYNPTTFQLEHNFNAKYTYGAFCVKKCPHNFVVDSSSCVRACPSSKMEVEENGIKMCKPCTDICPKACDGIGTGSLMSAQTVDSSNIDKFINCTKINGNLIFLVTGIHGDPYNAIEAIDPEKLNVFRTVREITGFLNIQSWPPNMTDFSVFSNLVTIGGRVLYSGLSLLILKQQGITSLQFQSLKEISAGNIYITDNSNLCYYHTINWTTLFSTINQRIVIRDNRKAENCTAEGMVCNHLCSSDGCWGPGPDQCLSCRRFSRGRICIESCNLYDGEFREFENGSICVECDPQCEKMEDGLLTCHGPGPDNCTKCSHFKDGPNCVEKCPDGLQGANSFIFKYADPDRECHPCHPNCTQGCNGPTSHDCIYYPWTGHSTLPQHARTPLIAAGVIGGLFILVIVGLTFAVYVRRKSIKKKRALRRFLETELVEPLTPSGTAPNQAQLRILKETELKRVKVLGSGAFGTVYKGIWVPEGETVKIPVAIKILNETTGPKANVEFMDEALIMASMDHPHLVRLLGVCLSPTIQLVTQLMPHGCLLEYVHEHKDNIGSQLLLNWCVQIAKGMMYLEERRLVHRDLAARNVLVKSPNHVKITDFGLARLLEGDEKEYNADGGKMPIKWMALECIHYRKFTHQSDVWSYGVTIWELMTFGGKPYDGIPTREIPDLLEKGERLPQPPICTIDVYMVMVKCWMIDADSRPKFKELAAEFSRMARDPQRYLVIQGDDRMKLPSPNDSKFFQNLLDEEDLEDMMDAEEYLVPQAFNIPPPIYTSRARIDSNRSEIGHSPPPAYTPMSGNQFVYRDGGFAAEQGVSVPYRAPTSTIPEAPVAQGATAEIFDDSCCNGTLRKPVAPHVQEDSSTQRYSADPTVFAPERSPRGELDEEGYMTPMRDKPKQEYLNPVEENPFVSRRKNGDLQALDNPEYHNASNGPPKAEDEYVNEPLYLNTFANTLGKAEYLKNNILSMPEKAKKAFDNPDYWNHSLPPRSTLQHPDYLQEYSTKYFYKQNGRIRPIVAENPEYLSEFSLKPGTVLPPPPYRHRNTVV
EGFR, sequence (P00533 25-1210): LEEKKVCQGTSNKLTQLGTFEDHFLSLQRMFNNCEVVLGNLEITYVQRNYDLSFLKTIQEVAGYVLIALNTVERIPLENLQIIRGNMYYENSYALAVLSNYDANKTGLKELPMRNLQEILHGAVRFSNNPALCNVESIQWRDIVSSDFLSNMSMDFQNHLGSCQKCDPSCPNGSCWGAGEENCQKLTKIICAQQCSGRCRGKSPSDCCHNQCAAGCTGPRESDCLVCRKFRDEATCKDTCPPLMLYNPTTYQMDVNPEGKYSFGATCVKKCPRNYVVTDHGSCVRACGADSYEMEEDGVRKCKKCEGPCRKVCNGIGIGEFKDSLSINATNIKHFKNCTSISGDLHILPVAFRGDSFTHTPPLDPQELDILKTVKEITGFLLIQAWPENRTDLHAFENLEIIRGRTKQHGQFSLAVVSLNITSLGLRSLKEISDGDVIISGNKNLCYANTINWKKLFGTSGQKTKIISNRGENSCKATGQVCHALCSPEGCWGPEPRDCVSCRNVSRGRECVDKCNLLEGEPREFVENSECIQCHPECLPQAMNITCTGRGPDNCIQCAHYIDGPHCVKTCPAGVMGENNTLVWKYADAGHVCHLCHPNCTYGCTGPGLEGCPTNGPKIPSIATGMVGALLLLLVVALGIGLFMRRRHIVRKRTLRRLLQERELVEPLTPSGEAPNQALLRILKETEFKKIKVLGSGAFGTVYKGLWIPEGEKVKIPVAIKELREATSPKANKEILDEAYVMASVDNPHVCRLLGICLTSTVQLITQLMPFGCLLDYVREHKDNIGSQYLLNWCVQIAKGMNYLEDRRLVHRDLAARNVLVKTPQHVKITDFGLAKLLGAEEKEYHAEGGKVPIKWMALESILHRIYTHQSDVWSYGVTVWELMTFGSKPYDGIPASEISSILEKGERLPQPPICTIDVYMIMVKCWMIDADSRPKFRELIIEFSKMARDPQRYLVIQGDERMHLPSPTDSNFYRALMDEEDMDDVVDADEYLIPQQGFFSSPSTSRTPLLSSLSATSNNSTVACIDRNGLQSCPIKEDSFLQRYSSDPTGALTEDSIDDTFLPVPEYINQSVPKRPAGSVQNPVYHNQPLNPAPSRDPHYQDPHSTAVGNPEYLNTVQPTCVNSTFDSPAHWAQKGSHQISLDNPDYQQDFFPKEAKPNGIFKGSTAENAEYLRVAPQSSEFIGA

`C=CC(=O)Nc1cc2c(Nc3ccc(F)c(Cl)c3)ncnc2cc1OCC1CC2(CCN(C)CC2)C1` [Crystal form I, N-(4-((3-chloro-4-fluorophenyl)amino)-7-((7-methyl-7-azaspiro[3.5]nonan-2-yl)methoxy)quinazolin-6-yl)acrylamide] registered a T1/2 in [1] of 4.95 h. Moreover, in data set [1] (male, beagle, dog, plasma, po), the AUC(0-inf) worked out at 115 ng·h/mL. In addition, the AUC0-t in data set [1] (male, beagle, dog, plasma, po, read-out: AUC0-t) came to 112 ng·h/mL. Besides, the maximum concentration (Cmax) in data set [1] (male, beagle, dog, plasma, po, read-out: Cmax) was 15.3 ng/mL. For the same molecule, the Tmax in data set [1] (male, dog, plasma, po, read-out: Tmax) is 2 h. For the same molecule, the Content in [2] is listed as 100.8%; in data set [4] (0 day) it was 100.8%; in data set [4] (60° C.-covered-1 month), 100.7%; in data set [4] (60° C.-covered-5 days), 100.9%; in data set [4] (60° C.-covered-10 days) it was 100.7%; in [5] (0 day), 100.8%. The Content in data set [5] (25° C. 1 month) worked out at 100.7%; in [5] (40° C. 1 month), 100.9%. For the same molecule, the “Moisture content” value in data set [2] turned out to be 4.3%; in data set [4] (0 day), 3.9%; in [4] (60° C.-covered-1 month), 4.4%; in data set [4] (60° C.-covered-5 days) it was 4.5%; in [4] (60° C.-covered-10 days), 4.5%; in [5] (0 day) it was 3.9%. In addition, the entries for the “Moisture content” value in data set [5] (25° C. 1 month) and in [5] (40° C. 1 month) were 4.2% and 4.6%, respectively. The Relevant substances is listed as 0.18% in data set [2]; 0.15% in data set [4] (0 day); 0.20% in data set [4] (60° C.-covered-1 month); 0.23% in data set [4] (60° C.-covered-5 days); 0.24% in data set [4] (60° C.-covered-10 days); 0.15% in data set [5] (0 day). The Relevant substances in [5] (25° C. 1 month) is recorded as 0.18%; in [5] (40° C. 1 month), 0.19%. The pH is 2.8 in data set [2]; 2.8 in [4] (0 day); 2.8 in data set [4] (60° C.-covered-1 month); 2.8 in data set [4] (60° C.-covered-5 days); 2.7 in [4] (60° C.-covered-10 days); 2.8 in [5] (0 day). Further, the pH in data set [5] (25° C. 1 month) and in [5] (40° C. 1 month) was 2.8 in each case. The “Soluble property (descriptive term)” value in data set [3] (25° C.) is reported as “slightly soluble, (soluble”. Moreover, the solubility in [3] (25 °C, thermodynamic from solid) amounted to 20 mg/mL (≈ 39.2 mM); in data set [6] (thermodynamic from solid) it was 39.1 mg/mL (≈ 76.7 mM). Also, in data set [4] (kept under various conditions for 1 month (Tables 3 and 4)), the Overall stability conclusion entry is on record as “high stability”.

Regarding `C=CC(=O)Nc1cc2c(Nc3ccc(F)c(Cl)c3)ncnc2cc1OCC1CC2(CCN(C)CC2)C1` [Crystal form II, N-(4-((3-chloro-4-fluorophenyl)amino)-7-((7-methyl-7-azaspiro[3.5]nonan-2-yl)methoxy)quinazolin-6-yl)acrylamide], the Moisture content in data set [7] (0 day) stood at 13.1%; in data set [7] (25° C. 3 months, uncovered) it was 13.4%; in [7] (25° C. 30 days, uncovered), 13.1%; in data set [7] (40° C. 5 days, uncovered), 4.5%; in data set [7] (40° C. 10 days, uncovered), 5.6%; in data set [7] (40° C. 30 days, uncovered) it was 5.3%. The Moisture content was determined as 4.4% in data set [7] (60° C. 5 days, uncovered); 5.3% in data set [7] (60° C. 10 days, uncovered); 13.2% in [7] (Light 5 days, uncovered); 13.3% in data set [7] (Light 10 days, uncovered); 13.2% in [7] (setting [12]); 13.3% in [7] (setting [13]). In addition, the Moisture content in data set [7] (setting [14]) is reported as 13.4%; in [7] (setting [15]), 13.5%. Further, the Relevant substances in data set [7] (0 day) was determined as 1.2%; in data set [7] (25° C. 3 months, uncovered), 1.3%; in data set [7] (25° C. 30 days, uncovered) it was 1.3%; in [7] (40° C. 5 days, uncovered) it was 1.3%; in data set [7] (40° C. 10 days, uncovered) it was 1.6%; in data set [7] (40° C. 30 days, uncovered), 3.0%. Further, the Relevant substances in [7] (60° C. 5 days, uncovered) was determined as 1.8%; in data set [7] (60° C. 10 days, uncovered) it was 2.3%; in [7] (Light 5 days, uncovered), 1.5%; in data set [7] (Light 10 days, uncovered) it was 1.8%; in data set [7] (setting [12]) it was 1.3%; in data set [7] (setting [13]) it was 1.3%. The Relevant substances in data set [7] (setting [14]) was determined as 1.2%; in data set [7] (setting [15]), 1.3%. For the same molecule, the “Crystal form XRPD” value in data set [7] (40° C. 5 days, uncovered) is “Crystal form I”; in data set [7] (40° C. 10 days, uncovered), “Crystal form I”; in data set [7] (40° C. 30 days, uncovered), “Crystal form I”; in [7] (60° C. 5 days, uncovered), “Crystal form I”; in data set [7] (60° C. 10 days, uncovered), “Crystal form I”. The Overall stability conclusion result in data set [7] (Table 5 conditions) is listed as “sensitive to high temperature conditions”. The AUC0-t in data set [1] was 110 ng·h/mL. Further, the AUCinf in data set [1] was found to be 111 ng·h/mL. In addition, the Cmax in data set [1] is 14.6 ng/mL. In [1], the T1/2 is recorded as 3.98 h. Further, the time to peak (Tmax) in data set [1] amounted to 2.00 h. In addition, the Soluble property result in [3] (25° C.) was “property: 23.23) mg/mL”. Further, the “Soluble property (descriptive term)” value in data set [3] (25° C.) is on record as “slightly soluble, (soluble”. In addition, the “Solubility (saturated solubility)” value in data set [6] is recorded as “solubility: 28.94 mg/mL”.

`C=CC(=O)Nc1cc2c(Nc3ccc(F)c(Cl)c3)ncnc2cc1OCC1CC2(CCN(C)CC2)C1` [Amorphous form, N-(4-((3-chloro-4-fluorophenyl)amino)-7-((7-methyl-7-azaspiro[3.5]nonan-2-yl)methoxy)quinazolin-6-yl)acrylamide]: in data set [1], the AUC0-t was 68.6 ng·h/mL, the AUCinf was found to be 79.9 ng·h/mL, the Cmax was found to be 16.6 ng/mL and the T1/2 is reported as 2.47 h. In addition, the Tmax in data set [1] amounted to 2.00 h.

Regarding `C=CC(=O)Nc1cc2c(Nc3ccc(F)c(Cl)c3)ncnc2cc1OCC1CC2(CCN(C)CC2)C1` [Formula (I), N-(4-((3-chloro-4-fluorophenyl)amino)-7-((7-methyl-7-azaspiro[3.5]nonan-2-yl)methoxy)quinazolin-6-yl)acrylamide], in data set [8], the “Inhibitory effect on H1975 cell line” value is reported as “significantly inhibitory effect”. Moreover, in data set [9], the “Inhibitory effect on HER2” value is listed as “inhibitory effect”. Further, the “Inhibitory effect on HER4” value in data set [10] was “inhibitory effect”. Further, the “Inhibition of EGFR” value in data set [11] is “effectively inhibit EGFR”.
